Laboratory results: publication PMC8151276, “An Integrated Approach toward NanoBRET Tracers for Analysis of GPCR Ligand Engagement” (Molecules, 2021)

Assays:
Format in all cases: binding
[1] = biological target: T1, CCR6 (Homo sapiens, UniProt P51684); assay: NanoBRET screen HiBiT-CCR6 in HEK293; conditions: CCR6
T1 construct: purchased Promega (in-house HiBiT-GPCR construct library, NanoBRET)
T1 sequence (P51684 1-374): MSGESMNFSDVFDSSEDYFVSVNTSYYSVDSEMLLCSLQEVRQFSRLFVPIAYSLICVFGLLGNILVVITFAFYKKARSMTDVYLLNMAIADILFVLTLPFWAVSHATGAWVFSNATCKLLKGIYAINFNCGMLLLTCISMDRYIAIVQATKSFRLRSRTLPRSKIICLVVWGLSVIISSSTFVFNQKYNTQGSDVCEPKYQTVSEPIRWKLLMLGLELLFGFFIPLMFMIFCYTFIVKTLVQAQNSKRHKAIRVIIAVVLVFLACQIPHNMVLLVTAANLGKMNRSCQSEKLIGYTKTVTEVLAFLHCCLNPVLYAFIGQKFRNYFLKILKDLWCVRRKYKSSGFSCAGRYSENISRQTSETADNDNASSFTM
Procedure: (§1) Each tracer candidate was screened across the entire library of HiBiT-GPCR constructs using NanoBRET as the detection modality. As depicted in Figure 4A, the specificity of interactions was evaluated through decrease in BRET due to competitive displacement of a bound tracer by excess parental compound. Each tracer was analyzed for binding to each HiBiT-GPCR fusion in the absence and in the presence of competing parental compound. Briefly, HEK293 cells were transfected with HiBiT-GPCR constructs diluted into promoterless DNA to reduce expression and maximize translocation to the cell surface. Each tracer candidate was then screened at concentrations of 1 μM and 0.1 μM across cells expressing these fusions. Cells were treated for 1.5 h with tracer either alone or in the presence of 20 μM competing parental compound (i.e., control). BRET was measured upon addition of purified LgBiT and subsequent complementation with HiBiT genetically fused to a GPCR. The specificity of interactions was assessed through a decrease in BRET signal due to competitive displacement of the bound tracer. To further gauge the robustness of these interactions, the fold response over the control (i.e., BRETtracer/BRETcontrol) was calculated. We chose a 1.5-fold response, which translates to ≥7-fold signal over noise as the minimal threshold required to score an interaction as positive. […]. Below we highlight the screening results obtained for our exemplary fluorescent tracers based on Clozapine, Amitriptyline and AZD1283.
(§2) HiBiT-GPCR DNA constructs were diluted in 10 mM Tris pH 8 to a final concentration of 0.01 μg/μL, arrayed in 96-well plates and stored at −20 °C. For transfection, HEK293 cells were suspended in Opti-MEM (without phenol red) supplemented with 2% fetal bovine serum (Seradigm) and 100 units/mL penicillin–streptomycin (Gibco) at a final concentration of 220,000 cells/mL and dispensed into white 96-well plates at 90 μL/well. Subsequent transfections and screens were carried using an Agilent Bravo Automated Liquid Handling Platform. First, the 96-well HiBiT DNA arrays were diluted 25-fold in Opti-MEM (without serum or phenol red) to a final concentration of 0.0004 μg/μL and 20 μL of the diluted DNAs were transferred into new 96-well plates. Next, promoterless carrier DNA (1 μg/μL) was diluted 25-fold (0.04 μg/μL) and then dispensed into the diluted arrays at 20 μL/well. Following brief mixing, Viafect transfection reagent (Promega) diluted 16-fold into Opti-MEM was dispensed into the plates at 40 μL/well. After mixing by pipetting, plates were incubated for 10 min on the pipetting station deck. The DNA-transfection reagent complexes were then added to plates containing cells. To facilitate the screen, 10 μL of DNA-transfection reagent complexes were added in duplicates to the top 4 and bottom 4 rows, resulting in two identical 48-well arrays per plate. Plates with transfected cells were incubated for 18–20 h at 37 °C/5% CO2. A screen of each tracer across the entire library using two different concentrations requires duplicate plates of transfected cells. Depending on the number of tracers being screened, transfections can be scaled up using the same ratios. The next day, for each tracer, four 20× screening solutions in tracer dilution buffer (Promega) were prepared: two duplicates at final concentration of 20 μM and two duplicates at a final concentration of 2 μM. A competing unmodified compound was added to one of each duplicate at a final concentration of 400 μM. The four resulting solutions were diluted 4-fold in Opti-MEM without serum or phenol red to generate 5× solutions (5 µM and 0.5 µM tracer +/− 100 μM competing compound). To screen the library, a BioTek MultiFlo FX liquid dispenser was used to dispense 22.5 µL of tracer solution to the top 4 rows and 22.5 µL tracer + competing compound solution to the 4 bottom rows. Plates were briefly mixed on an orbital shaker and incubated for 1.5 h at room temperature. […]

[2] = biological target: T2, FPR3 (Homo sapiens, UniProt P25089); assay: NanoBRET screen HiBiT-FPR3 in HEK293; conditions: FPR3
T2 construct: purchased Promega (in-house HiBiT-GPCR construct library, NanoBRET)
T2 sequence (P25089 1-353): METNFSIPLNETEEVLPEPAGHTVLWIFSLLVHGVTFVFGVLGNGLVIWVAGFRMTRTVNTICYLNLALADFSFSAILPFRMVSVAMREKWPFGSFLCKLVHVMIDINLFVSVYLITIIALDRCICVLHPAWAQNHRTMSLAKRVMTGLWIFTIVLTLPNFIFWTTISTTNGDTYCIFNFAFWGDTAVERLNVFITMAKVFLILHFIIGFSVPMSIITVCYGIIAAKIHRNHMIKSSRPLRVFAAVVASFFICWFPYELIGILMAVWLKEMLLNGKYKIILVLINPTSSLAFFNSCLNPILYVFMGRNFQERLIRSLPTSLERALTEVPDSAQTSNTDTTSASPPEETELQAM
Procedure: as §1, §2

[3] = biological target: T3, NMUR1 (Homo sapiens, UniProt Q9HB89); assay: NanoBRET screen HiBiT-NMUR1 in HEK293; conditions: NMUR1
T3 construct: purchased Promega (in-house HiBiT-GPCR construct library, NanoBRET)
T3 sequence (Q9HB89 1-426): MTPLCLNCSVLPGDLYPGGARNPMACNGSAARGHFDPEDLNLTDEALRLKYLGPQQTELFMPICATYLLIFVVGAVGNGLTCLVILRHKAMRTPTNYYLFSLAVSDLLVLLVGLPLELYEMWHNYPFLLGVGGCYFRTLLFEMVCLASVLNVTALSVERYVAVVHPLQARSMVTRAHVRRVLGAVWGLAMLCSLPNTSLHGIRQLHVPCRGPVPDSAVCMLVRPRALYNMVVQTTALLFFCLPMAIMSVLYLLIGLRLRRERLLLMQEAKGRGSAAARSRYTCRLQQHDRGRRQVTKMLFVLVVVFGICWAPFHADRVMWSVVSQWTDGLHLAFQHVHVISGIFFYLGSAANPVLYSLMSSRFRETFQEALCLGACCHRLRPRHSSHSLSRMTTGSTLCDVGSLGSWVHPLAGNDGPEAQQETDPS
Procedure: as §1, §2

[4] = biological target: T4, SSTR4 (Homo sapiens, UniProt P31391); assay: NanoBRET screen HiBiT-SSTR4 in HEK293; conditions: SSTR4
T4 construct: purchased Promega (in-house HiBiT-GPCR construct library, NanoBRET)
T4 sequence (P31391 whole entry): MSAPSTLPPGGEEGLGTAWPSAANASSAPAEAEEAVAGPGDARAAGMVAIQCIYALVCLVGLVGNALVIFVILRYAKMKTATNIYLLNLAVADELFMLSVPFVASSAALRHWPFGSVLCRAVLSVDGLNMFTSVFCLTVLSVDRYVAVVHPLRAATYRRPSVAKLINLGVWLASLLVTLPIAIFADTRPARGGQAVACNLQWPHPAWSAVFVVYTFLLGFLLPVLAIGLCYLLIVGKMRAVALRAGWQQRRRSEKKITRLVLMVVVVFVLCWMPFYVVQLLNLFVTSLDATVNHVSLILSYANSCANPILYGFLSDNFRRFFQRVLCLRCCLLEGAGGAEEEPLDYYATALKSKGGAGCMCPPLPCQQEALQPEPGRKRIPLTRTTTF
Procedure: as §1, §2

Row | Structure (SMILES) | NanoBRET Fold Response ([1]; tracer 0.1μM) | NanoBRET Fold Response ([1]; tracer 1μM) | NanoBRET Fold Response ([2]; tracer 0.1μM) | NanoBRET Fold Response ([2]; tracer 1μM) | NanoBRET Fold Response ([3]; tracer 0.1μM) | NanoBRET Fold Response ([3]; tracer 1μM) | NanoBRET Fold Response ([4]; tracer 0.1μM) | NanoBRET Fold Response ([4]; tracer 1μM) | NanoBRET Fold Response ([1]; 0.1μM) | NanoBRET Fold Response ([1]; 1μM) | NanoBRET Fold Response ([2]; 0.1μM) | NanoBRET Fold Response ([2]; 1μM) | NanoBRET Fold Response ([3]; 0.1μM) | NanoBRET Fold Response ([3]; 1μM) | NanoBRET Fold Response ([4]; 0.1μM) | NanoBRET Fold Response ([4]; 1μM)
1 | COc1ccccc1N1CCN(CCCCN2C(=O)c3ccc(CNC(=O)CCOCCOCCOCCOCCNC(=O)CCc4ccc5n4[B-](F)(F)[N+]4=C(c6ccc[nH]6)C=CC4=C5)cc3C2=O)CC1 [NAN-190-2-NB590] | 0.99 | 1.02 | 1.00 | 0.74 | 0.99 | 0.98 | 1.02 | 1.00 |  |  |  |  |  |  |  | 
2 | COc1ccccc1N1CCN(CCCCN2C(=O)c3ccc(CNC(=O)CCOCCNC(=O)c4ccc(CNC(=O)CCc5ccc6n5[B-](F)(F)[N+]5=C(c7ccc[nH]7)C=CC5=C6)cc4)cc3C2=O)CC1 [NAN-190-3-NB590] | 1.19 | 0.93 | 1.28 | 0.99 | 1.03 | 0.96 | 0.90 | 1.05 |  |  |  |  |  |  |  | 
3 | O=C(CCc1ccc2n1[B-](F)(F)[N+]1=C(c3ccc[nH]3)C=CC1=C2)NCc1ccc(C(=O)NCCOCCC(=O)N[C@@H]2CC[C@@]3(O)[C@H]4Cc5ccc(O)c6c5[C@@]3(CCN4CC3CC3)[C@H]2O6)cc1 [Naltrexone-3-NB590] | 0.94 | 1.24 | 0.82 | 0.92 | 0.85 | 1.07 | 0.99 | 0.90 |  |  |  |  |  |  |  | 
4 | Cc1cc2c(s1)Nc1ccccc1N=C2N1CCN(CCCNC(=O)CCOCCOCCOCCOCCNC(=O)CCc2ccc3n2[B-](F)(F)[N+]2=C(c4ccc[nH]4)C=CC2=C3)CC1 [Olanzapine-a-2-NB590] | 1.00 | 1.21 | 0.92 | 0.96 | 0.98 | 1.00 | 0.98 | 1.04 |  |  |  |  |  |  |  | 
5 | O=C(CCc1ccc2n1[B-](F)(F)[N+]1=C(c3ccc[nH]3)C=CC1=C2)NCc1ccc(C(=O)NCCOCCOCCNCC(O)COc2cccc3ccccc23)cc1 (centres unmarked) [Propranolol-3-NB590] |  |  |  |  |  |  |  |  | 0.95 | 1.02 | 1.03 | 1.03 | 1.01 | 1.00 | 1.02 | 0.98
6 | O=C(CCc1ccc2n1[B-](F)(F)[N+]1=C(c3ccc[nH]3)C=CC1=C2)NCCOCCOCCNC(=O)OCCOCCN1CCN(C2=Nc3ccccc3Sc3ccccc32)CC1 [Quetiapine-a-2-NB590] | 1.05 | 0.95 | 1.28 | 0.66 | 1.01 | 0.81 | 0.99 | 0.83 |  |  |  |  |  |  |  | 
7 | Cc1nc2n(c(=O)c1CCN1CCC(c3noc4cc(F)ccc34)CC1)CCCC2OC(=O)NCCOCCOCCOCCOCCNC(=O)CCc1ccc2n1[B-](F)(F)[N+]1=C(c3ccc[nH]3)C=CC1=C2 (centres unmarked) [Risperidone-2-NB590] | 1.07 | 0.91 | 0.98 | 0.94 | 1.04 | 0.97 | 1.03 | 1.04 |  |  |  |  |  |  |  | 
8 | CC(C)N(CC[C@H](c1ccccc1)c1cc(CCNC(=O)CCOCCOCCOCCOCCNC(=O)CCc2ccc3n2[B-](F)(F)[N+]2=C(c4ccc[nH]4)C=CC2=C3)ccc1O)C(C)C [Tolterodine-2-NB590] | 1.07 | 1.01 | 1.60 | 0.92 | 0.94 | 1.12 | 0.97 | 1.14 |  |  |  |  |  |  |  | 
9 | CC(C)N(CC[C@H](c1ccccc1)c1cc(CCNC(=O)c2ccc(CNC(=O)CCc3ccc4n3[B-](F)(F)[N+]3=C(c5ccc[nH]5)C=CC3=C4)cc2)ccc1O)C(C)C [Tolterodine-BZ-NB590] | 1.05 | 1.03 | 0.71 | 0.93 | 0.78 | 1.02 | 0.99 | 0.93 |  |  |  |  |  |  |  | 
10 | CCCn1c(=O)c2[nH]c(-c3ccc(OCC(=O)NCCNC(=O)CCOCCNC(=O)c4ccc(CNC(=O)CCc5ccc6n5[B-](F)(F)[N+]5=C(c7ccc[nH]7)C=CC5=C6)cc4)cc3)nc2n(CCC)c1=O [XAC-3-NB590] | 1.00 | 1.26 | 0.78 | 1.04 | 0.91 | 1.00 | 1.01 | 0.93 |  |  |  |  |  |  |  | 
